Assay results as given in US9890166B2, “Imidazopyrrolidine derivatives and their use in the treatment of disease” (NOVARTIS AG, priority 2013, dated 2018).

Tests used:
[1] = target: BRD4 (His-Brd4(44-477)) (Homo sapiens (Human), UniProt O60885); assay: TR-FRET in-vitro binding assay for BRD4; conditions: single determination or n ≧ 2 independent determinations, read-out: Biochemical IC50 BRD4
Protocol: (§1) TR-FRET In-Vitro Binding Assays for BRD2, BRD3, and BRD4:
(§2) All assays were performed in 384 well microtiter plates. Each assay plate contained 8-point serial dilutions for 40 test compounds, plus 16 high- and 16 low controls. Liquid handling and incubation steps were done on an Innovadyne Nanodrop Express equipped with a robotic arm (Thermo CatX, Perkin Elmer/Caliper Twister II) and an incubator (Liconic STX40, Thermo Cytomat 2C450). The assay plates were prepared by addition of 50 nl per well of compound solution in 90% DMSO HummingBird nanodispenser (Zinsser Analytic). […] Reactions were incubated at 30° C. for 35 minutes. […] After 35 minutes incubation at 30° C., plates were measured in a Perkin Elmer EnVision multilabel reader.
(§3) Preparation of Compound Dilutions
(§4) Test compounds were dissolved in DMSO (10 mM) and transferred into 1.4 mL flat bottom or V-shaped Matrix tubes carrying a unique 2D matrix. The stock solutions were stored at […] if not used immediately. For the test procedure the vials were defrosted and identified by a scanner whereby a working sheet was generated that guided the subsequent working steps.
(§5) Compound dilutions were made in 96 well plates. This format enabled the assay of maximally 40 individual test compounds at 8 concentrations (single points) including 4 reference compounds, if desired (known BET inhibitors from the prior art, for this and other assays of the type disclosed herein). The dilution protocol included the production of “pre-dilution plates”, “master plates” and “assay plates”.
(§6) Pre-Dilution Plates: 96 polypropylene well plates were used as pre-dilution plates. A total of 4 pre-dilution plates were prepared including 10 test compounds each on the plate positions A1-A10, one standard compound at A11 and one DMSO control at A12. All dilution steps were done on a HamiltonSTAR robot.
(§7) These plates were used directly for the assay which was performed in a total volume of 13.55 μL.

[2] = target: BRD2 (His-Brd2(60-472)) (Homo sapiens (Human), UniProt P25440); assay: TR-FRET in-vitro binding assay for BRD2; conditions: single determination or n ≧ 2 independent determinations, read-out: Biochemical IC50 BRD2
Protocol: as §1, §2, §3, §4, §5, §6, §7

[3] = target: BRD3 (His-Brd3(20-477)) (Homo sapiens (Human), UniProt Q15059); assay: TR-FRET in-vitro binding assay for BRD3; conditions: single determination or n ≧ 2 independent determinations, read-out: Biochemical IC50 BRD3
Protocol: as §1, §2, §3, §4, §5, §6, §7

[4] = target: CREBBP bromodomain (His-CREBBP(1081-1197)) (Homo sapiens (Human), UniProt Q92793); assay: AlphaScreen in-vitro binding assay for CREBBP; conditions: single determination or n ≧ 2 independent determinations, read-out: Biochemical IC50 CREBBP
Protocol: AlphaScreen In-Vitro Binding Assay for CREBBP
In order to assess bromodomain selectivity, we set up a binding assay using the bromodomain encoded by the CREBBP gene. […] Reactions were incubated at 30° C. for 35 minutes. Subsequently 4.5 μl per well detection mix (50 mM HEPES, pH 7.5, 0.005% Tween20, 0.02% BSA, 150 mM NaCl, 45 μg/ml Ni-chelate acceptor beads, 45 μg/mIstreptavidin-donor beads) (Perkin Elmer)) were added. After 60 minutes incubation at room temperature, plates were measured in a Perkin Elmer EnVision multilabel reader. IC50 values were determined from percent inhibition values at different compound concentrations by non-linear regression analysis.
as §3, §4, §5, §6, §7

[5] = tested on: THP-1 cells; assay: Cell growth inhibition assay (CellTiter-Glo), THP-1; conditions: for GI50: Homo sapiens, THP-1, read-out: THP-1 GI50; for THP-1 TGI: THP-1 cells, total growth inhibition, CellTiter-Glo;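 for all read-outs here: viability read as cellular ATP luminescence after 4 days, 3-fold dilution series from 10 µM, DMSO vehicle-treated cells taken as 100%, cell-free medium wells as −100%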
[6] = tested on: K-562 cells; assay: Cell growth inhibition assay (CellTiter-Glo), K-562; conditions: for GI50: Homo sapiens, K562, read-out: K-562 GI50; for K-562 TGI: K-562 cells, total growth inhibition, CellTiter-Glo;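 for all read-outs here: cellular ATP measured by luminescence after 4 days of exposure, 3-fold dilution series from 10 µM, DMSO vehicle-treated cells define 100%, cell-free medium wells −100%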
[7] = tested on: MV-4-11 cells; assay: Cell growth inhibition assay (CellTiter-Glo), MV-4-11; conditions: for GI50: Homo sapiens, MV4-11, read-out: MV-4-11 GI50; for MV-4-11 TGI: MV-4-11 cells, total growth inhibition, CellTiter-Glo;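 for all read-outs here: cellular ATP luminescence after 4 days, 3-fold dilution series from 10 µM top dose, vehicle (0.1% DMSO) set to 100%, cell-free medium set to −100%, day 0 corrected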

Chain of CREBBP bromodomain (His-CREBBP(1081-1197)) (Q92793 1081-1197): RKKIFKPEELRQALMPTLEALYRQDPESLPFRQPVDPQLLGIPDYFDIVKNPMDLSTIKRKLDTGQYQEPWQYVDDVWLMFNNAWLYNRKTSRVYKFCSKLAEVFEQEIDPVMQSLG
Chain of BRD3 (His-Brd3(20-477)) (Q15059 20-477): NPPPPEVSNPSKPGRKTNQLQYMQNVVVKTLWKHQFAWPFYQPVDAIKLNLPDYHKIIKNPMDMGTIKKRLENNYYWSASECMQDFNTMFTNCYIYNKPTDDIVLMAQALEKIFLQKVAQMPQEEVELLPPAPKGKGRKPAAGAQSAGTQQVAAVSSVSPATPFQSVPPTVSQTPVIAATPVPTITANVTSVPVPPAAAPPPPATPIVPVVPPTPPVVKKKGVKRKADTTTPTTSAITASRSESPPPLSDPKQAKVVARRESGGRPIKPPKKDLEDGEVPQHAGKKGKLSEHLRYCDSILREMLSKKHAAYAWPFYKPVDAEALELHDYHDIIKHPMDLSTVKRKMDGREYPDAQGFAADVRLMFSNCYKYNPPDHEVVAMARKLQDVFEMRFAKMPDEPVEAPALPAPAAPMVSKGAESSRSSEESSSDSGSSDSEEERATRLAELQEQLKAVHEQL
Chain of BRD2 (His-Brd2(60-472)) (P25440 60-472): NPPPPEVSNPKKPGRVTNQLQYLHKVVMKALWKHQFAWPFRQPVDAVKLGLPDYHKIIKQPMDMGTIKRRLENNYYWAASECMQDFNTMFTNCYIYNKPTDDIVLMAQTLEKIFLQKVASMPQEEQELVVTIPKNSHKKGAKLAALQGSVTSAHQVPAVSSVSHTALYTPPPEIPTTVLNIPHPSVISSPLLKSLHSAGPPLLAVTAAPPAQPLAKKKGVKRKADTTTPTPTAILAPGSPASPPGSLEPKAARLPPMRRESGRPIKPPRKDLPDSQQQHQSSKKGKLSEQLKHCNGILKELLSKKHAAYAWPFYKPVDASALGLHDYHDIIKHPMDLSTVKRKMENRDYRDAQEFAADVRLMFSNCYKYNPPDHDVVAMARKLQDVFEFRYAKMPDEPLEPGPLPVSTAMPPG

| Structure (SMILES) | IC50 [1] | IC50 [2] | IC50 [3] | IC50 [4] | GI50 [5] | GI50 [6] | GI50 [7] | THP-1 TGI [5] | K-562 TGI [6] | MV-4-11 TGI [7] |
| --- | --- | --- | --- | --- | --- | --- | --- | --- | --- | --- |
| CC(C)n1c(-c2ccccn2)nc2c1C(c1ccc(Cl)cc1)N(c1ccc(=O)n(C)c1)C2=O (centres unmarked) [Example 20, 6-(4-chlorophenyl)-1-isopropyl-5-(1-methyl-6-oxo-1,6-dihydropyridin-3-yl)-2-(Pyridin-2-yl)-5,6-dihydropyrrolo[3,4-d]imidazol-4(1H)-one] | 630 nM | 710 nM | 610 nM | 24600 nM |  |  |  |  |  |  |
| CC(C)n1c(-c2ccnn2C)nc2c1C(c1ccc(Cl)cc1)N(c1ccc(=O)n(C)c1)C2=O (centres unmarked) [Example 21, 6-(4-chlorophenyl)-1-isopropyl-2-(1-methyl-1H-pyrazol-5-yl)-5-(1-methyl-6-oxo-1,6-dihydropyridin-3-yl)-5,6-dihydropyrrolo[3,4-d]imidazol-4(1H)-one] | 772 nM | 1100 nM | 840 nM | 34800 nM |  |  |  |  |  |  |
| CC(C)n1c(-c2ccn(C)n2)nc2c1C(c1ccc(Cl)cc1)N(c1ccc(=O)n(C)c1)C2=O (centres unmarked) [Example 22, 6-(4-chlorophenyl)-1-isopropyl-2-(1-methyl-1H-pyrazol-3-yl)-5-(1-methyl-6-oxo-1,6-dihydropyridin-3-yl)-5,6-dihydropyrrolo[3,4-d]imidazol-4(1H)-one] | 495 nM | 607 nM | 603 nM | > 37000 nM |  |  |  |  |  |  |
| Cc1cc(N2C(=O)c3nc(-c4nccs4)n(C(C)C)c3[C@H]2c2ccc(Cl)cc2)cn(C)c1=O [Example 24, (R)-6-(4-chlorophenyl)-5-(1,5-dimethyl-6-oxo-1,6-dihydropyridin-3-yl)-1-isopropyl-2-(thiazol-2-yl)-5,6-dihydropyrrolo[3,4-d]imidazol-4(1H)-one] | 42.5 nM | 30 nM | 41.5 nM | 455 nM |  |  |  |  |  |  |
| Cc1ncc(-c2nc3c(n2C(C)C)C(c2ccc(Cl)cc2)N(c2cc(C)c(=O)n(C)c2)C3=O)s1 (centres unmarked) [Example 29, 6-(4-chlorophenyl)-5-(1,5-dimethyl-6-oxo-1,6-dihydropyridin-3-yl)-1-isopropyl-2-(2-methylthiazol-5-yl)-5,6-dihydropyrrolo[3,4-d]imidazol-4(1H)-one] | 110 nM | 81 nM | 100 nM | 800 nM |  |  |  |  |  |  |
| Cc1cc(N2C(=O)c3nc(-c4ccc[nH]4)n(C(C)C)c3C2c2ccc(Cl)cc2)cn(C)c1=O (centres unmarked) [Example 30, 6-(4-chlorophenyl)-5-(1,5-dimethyl-6-oxo-1,6-dihydropyridin-3-yl)-1-isopropyl-2-(1H-pyrrol-2-yl)-5,6-dihydropyrrolo[3,4-d]imidazol-4(1H)-one] | 120 nM | 92 nM | 100 nM | 1000 nM |  |  |  |  |  |  |
| COc1ncccc1-c1nc2c(n1C(C)C)[C@@H](c1ccc(Cl)cc1)N(c1cc(C)c3nnn(C)c3c1)C2=O [Example 112, (R)-6-(4-chlorophenyl)-5-(1,4-dimethyl-1H-benzo[d][1,2,3]triazol-6-yl)-1-isopropyl-2-(2-methoxypyridin-3-yl)-5,6-dihydropyrrolo[3,4-d]imidazol-4(1H)-one] | < 11 nM | 13 nM | < 11 nM |  | 4.79 nM | 17.2 nM | 1.72 nM | 0.00984 µM | >10 µM | 0.00461 µM |

The next lines start with results.

| IC50 [1] | IC50 [2] | IC50 [3] | IC50 [4] | GI50 [5] | GI50 [6] | GI50 [7] | Structure (SMILES) | THP-1 TGI [5] | K-562 TGI [6] | MV-4-11 TGI [7] |
| --- | --- | --- | --- | --- | --- | --- | --- | --- | --- | --- |
| 43 nM | 120 nM | 58 nM | 10200 nM | 84.3 nM | 156 nM | 35.1 nM | COc1cc(N2C(=O)c3nc(C4CCOCC4)n(C(C)C)c3C2c2ccc(Cl)cc2)cc2c1nnn2C (racemic) [Example 64] | 0.155 µM | >10 µM | 0.0546 µM |
| 32 nM | 140 nM | 61 nM | 10300 nM | 57.9 nM | 158 nM | 38.2 nM | COc1ncccc1-c1nc2c(n1C(C)C)C(c1ccc(Cl)cc1)N(c1cc(OC)c3nnn(C)c3c1)C2=O (racemic) [Example 74, 6-(4-chlorophenyl)-1-isopropyl-5-(4-methoxy-1-methyl-1H-benzo[d][1,2,3]triazol-6-yl)-2-(2-methoxypyridin-3-yl)-5,6-dihydropyrrolo[3,4-d]imidazol-4(1H)-one] | 0.121 µM | >10 µM | 0.05925 µM |
| 47 nM | 45 nM | 37 nM |  | 79.4 nM | 349 nM | 36.4 nM | Cc1cc(N2C(=O)c3nc(C4CCCC4)n(C(C)C)c3C2c2ccc(Cl)cc2)cn(C)c1=O (centres unmarked) [Example 31, 6-(4-chlorophenyl)-2-cyclopentyl-5-(1,5-dimethyl-6-oxo-1,6-dihydropyridin-3-yl)-1-isopropyl-5,6-dihydropyrrolo[3,4-d]imidazol-4(1H)-one] | 0.125 µM | >10 µM | 0.0599 µM |
| 100 nM | 65 nM | 66 nM | 510 nM |  |  |  | Cc1cc(N2C(=O)c3nc(C4CC4)n(C(C)(C)C)c3C2c2ccc(Cl)cc2)cn(C)c1=O (centres unmarked) [Example 33, 1-(tert-butyl)-6-(4-chlorophenyl)-2-cyclopropyl-5-(1,5-dimethyl-6-oxo-1,6-dihydropyridin-3-yl)-5,6-dihydropyrrolo[3,4-d]imidazol-4(1H)-one] |  |  |  |
| 39 nM | 33 nM | 39 nM | 1000 nM |  |  |  | COc1ncccc1-c1nc2c(n1C(C)C)C(=O)N(c1cc(C)c(=O)n(C)c1)C2c1ccc(Cl)cc1 (centres unmarked) [Example 44, 6-(4-chlorophenyl)-5-(1,5-dimethyl-6-oxo-1,6-dihydropyridin-3-yl)-3-isopropyl-2-(2-methoxypyridin-3-yl)-5,6-dihydropyrrolo[3,4-d]imidazol-4(3H)-one] |  |  |  |
| 20.5 nM | 35.5 nM | 29.5 nM | 5130 nM |  |  |  | CCn1c(C)nc2c1[C@@H](c1ccc(Cl)cc1)N(c1cc(C)c3nnn(C)c3c1)C2=O [Example 120, (R)-6-(4-chlorophenyl)-5-(3,7-dimethyl-3H-benzo[d][1,2,3]triazol-5-yl)-1-ethyl-2-methyl-5,6-dihydropyrrolo[3,4-d]imidazol-4(1H)-one] |  |  |  |
| 19 nM | 21.5 nM | 26 nM | 2620 nM |  |  |  | CCn1c(C)nc2c1C(=O)N(c1cc(C)c3nnn(C)c3c1)[C@@H]2c1ccc(Cl)cc1 [Example 122, (R)-6-(4-chlorophenyl)-5-(3,7-dimethyl-3H-benzo[d][1,2,3]triazol-5-yl)-3-ethyl-2-methyl-5,6-dihydropyrrolo[3,4-d]imidazol-4(3H)-one] |  |  |  |
| 65 nM | 97 nM | 87 nM | 5500 nM |  |  |  | COc1ncccc1-c1nc2c([nH]1)C(c1ccc(Cl)cc1)N(c1cc(C)c3nnc(C)n3c1)C2=O (centres unmarked) [Example 123, 6-(4-chlorophenyl)-5-(3,8-dimethyl-[1,2,4]triazolo[4,3-a]pyridin-6-yl)-2-(2-methoxypyridin-3-yl)-5,6-dihydropyrrolo[3,4-d]imidazol-4(1H)-one] |  |  |  |
| 40 nM | 96 nM | 36 nM | 1750 nM |  |  |  | COc1ncccc1-c1nc2c([nH]1)[C@@H](c1ccc(Cl)cc1)N(c1cc(C)c3nnc(C)n3c1)C2=O [Example 142, (R)-6-(4-chlorophenyl)-5-(3,8-dimethyl-[1,2,4]triazolo[4,3-a]pyridin-6-yl)-2-(2-methoxypyridin-3-yl)-5,6-dihydropyrrolo[3,4-d]imidazol-4(1H)-one] |  |  |  |
